# Results as given in publication PMC8878140, “Inhibitory Effects of Nitrogenous Metabolites from a Marine-Derived Streptomyces bacillaris on Isocitrate Lyase of Candida albicans” (Marine Drugs, 2022).
# How the values were obtained:
# isocitrate lyase (ICL) [1] = target: T1, isocitrate lyase (ICL) (Candida albicans, UniProt Q9P8Q7); experiment: biochemical
# T1 construct: gene ICL1; purified recombinant ICL
# isocitrate lyase (ICL) [2] = target: T1, isocitrate lyase (ICL); experiment: enzyme assay, absorbance at […] nm (phenylhydrazine); Lineweaver-Burk and Dixon plots; format: biochemical
# T1 sequence (Q9P8Q7 whole entry): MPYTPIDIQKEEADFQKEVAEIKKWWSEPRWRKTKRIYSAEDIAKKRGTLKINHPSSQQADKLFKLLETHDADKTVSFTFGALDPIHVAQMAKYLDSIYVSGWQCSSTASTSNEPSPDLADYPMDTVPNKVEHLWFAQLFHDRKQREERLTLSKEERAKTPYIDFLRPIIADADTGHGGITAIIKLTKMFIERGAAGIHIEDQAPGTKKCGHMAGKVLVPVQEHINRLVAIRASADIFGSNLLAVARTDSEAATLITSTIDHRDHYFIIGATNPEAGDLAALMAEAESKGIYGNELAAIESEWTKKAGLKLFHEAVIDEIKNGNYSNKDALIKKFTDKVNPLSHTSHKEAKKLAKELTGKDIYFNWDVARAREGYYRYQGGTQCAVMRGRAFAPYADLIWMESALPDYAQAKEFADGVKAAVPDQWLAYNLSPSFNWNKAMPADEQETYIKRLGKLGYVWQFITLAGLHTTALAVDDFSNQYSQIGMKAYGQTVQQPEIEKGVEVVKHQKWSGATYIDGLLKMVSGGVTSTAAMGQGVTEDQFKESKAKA
compound,measurement,setting,value
"O=C(O)CC[N+](=O)[O-] [3-nitropropionate, reference compound]",IC50,isocitrate lyase (ICL) [1],21.5 µM
"CS[C@]12CC[C@H](O)[C@H]1C(=O)NC2=O [compound 1, bacillimide]",IC50,isocitrate lyase (ICL) [2],44.2 µM
"C[S+]([O-])CCNC(=O)c1ccc[nH]1 (stereo not drawn) [compound 2, N-(2-(methylsulfinyl)ethyl)-1H-pyrrole-2-carboxamide]",IC50,isocitrate lyase (ICL) [1]; read-out: ICL IC50,190 µM
